From patent US20240025924A1, “HETEROCYCLE SUBSTITUTED KETONE DERIVATIVE, AND COMPOSITION AND MEDICINAL USE THEREOF” (SHANGHAI HAIYAN PHARMACEUTICAL TECHNOLOGY CO., LTD., priority 2021, published 2024)

Experiments:
SHP-2 enzyme = target: T1, SHP-2 enzyme (Homo sapiens, UniProt Q06124); test: Phosphatase activity assay (Homogeneous Full Length SHP-2 Assay Kit, DiFMUP substrate); type: biochemical; conditions: full length SHP-2 activated with 0.5 μM SHP-2 activating Peptide; 1 hour co-incubation; DiFMUP 50 μM, 30 min
T1 construct: Homogeneous Full Length SHP-2 Assay Kit (BPS Bioscience #79330); purchased BPS Bioscience 79330
T1 sequence (Q06124 1-593): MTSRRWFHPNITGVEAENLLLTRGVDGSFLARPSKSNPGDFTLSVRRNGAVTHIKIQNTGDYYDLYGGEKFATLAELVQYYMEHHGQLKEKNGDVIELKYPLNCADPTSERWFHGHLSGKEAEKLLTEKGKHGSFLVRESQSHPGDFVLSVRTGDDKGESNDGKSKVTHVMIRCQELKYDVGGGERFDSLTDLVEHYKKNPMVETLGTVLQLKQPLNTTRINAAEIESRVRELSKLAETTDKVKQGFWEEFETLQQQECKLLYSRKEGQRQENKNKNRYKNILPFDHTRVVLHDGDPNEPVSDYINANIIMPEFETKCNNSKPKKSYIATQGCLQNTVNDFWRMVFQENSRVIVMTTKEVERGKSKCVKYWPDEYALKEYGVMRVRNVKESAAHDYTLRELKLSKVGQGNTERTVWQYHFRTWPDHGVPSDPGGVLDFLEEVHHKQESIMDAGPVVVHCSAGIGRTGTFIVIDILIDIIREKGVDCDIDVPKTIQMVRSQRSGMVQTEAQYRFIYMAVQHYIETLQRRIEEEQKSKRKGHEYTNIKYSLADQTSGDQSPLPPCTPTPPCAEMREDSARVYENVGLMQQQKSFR
Procedure: IC50 values were assayed using Homogeneous Full Length SHP-2 Assay Kit (BPS Bioscience #79330), which uses 6,8-difluoro-4-methylumbelliferone phosphate (DiFMUP) as the reaction substrate. SHP2 enzyme solution (diluted to 0.04 ng/μL with 1*buffer) was mixed with 0.5 μM SHP-2 activating Peptide in a 1*buffer solution containing 2.5 mM DTT to activate PTP. At the same time, DMSO (0.1% (V/V)) or the compounds (concentration: 0.5 nM to 1 μM) were added, mixed and co-incubated for 1 hour. DiFMUP (50 μM, total reaction system volume of 20 μL) was added, and the reaction was started. After 30 min of incubation, the fluorescence intensity of the reaction system (excitation wavelength: 350 nm, emission wavelength: 460 nm) was measured by Tecan Infinite M1000.

MV-4-11 cell = test: Cell proliferation assay (Cell Titer-Glo); type: cell-based; conditions: inhibition of MV-4-11 cell proliferation, Cell Titer-Glo on day 4
Procedure: MV 411 cells (20000 cells/well) were inoculated and cultured in 96 (Corning #3916) well plates, and the medium was 80 μL/well (IMDM with 10% fetal bovine serum (FBS), Gibco #10099-141C). After 24 hours of incubation, 20 μL of the compounds of the present invention configured to different concentrations (DMSO final concentration of 0.1% (V/V)) were added. On day 4, 60 μL of Cell Titer-Glo (Promega #G7558) was added to each well and mixed at 80 rpm, 25° C., 15 min, and the fluorescence values were detected by Victor X5 (PE).

| IC50 (SHP-2 enzyme) | IC50 (MV-4-11 cell; Homo sapiens, MV4-11, 96 h) | IC50 (MV-4-11 cell) | SMILES |
| --- | --- | --- | --- |
| 0.001 µM | 0.22 µM | – | COc1ccc2c(c1)C(N)C1(CCN(c3cnc(C(=O)N4CCCn5nccc54)c(N)n3)CC1)C2 (stereo not shown) [Compound 5] |
| 0.008 µM | 0.241 µM | – | Nc1nc(N2CCC3(CC2)Cc2ccccc2C3N)c(F)nc1C(=O)N1CCCn2nccc21 (stereo not shown) [Compound 49] |
| 0.014 µM | 0.241 µM | – | Cn1cnc2c1CCCN2C(=O)c1ncc(N2CCC3(CC2)Cc2ccccc2C3N)nc1N (stereo not shown) [Compound 50] |
| 0.005 µM | 0.009 µM | – | Nc1nc2c(s1)CN(C(=O)c1ncc(N3CCC4(CC3)Cc3ccccc3C4N)nc1N)CC2 (stereo not shown) [Compound 75] |
| 0.004 µM | 0.044 µM | – | Nc1nc(N2CCC3(CC2)Cc2ccccc2C3N)c(Cl)nc1C(=O)N1CCCn2nccc21 (stereo not shown) [Compound 28] |
| 0.005 µM | 0.235 µM | – | CC1CN(C(=O)c2ncc(N3CCC4(CC3)Cc3cc(F)ccc3C4N)nc2N)c2ccc(N)nc21 (stereo not shown) [Compound 88] |
| 0.003 µM | 0.061 µM | – | Nc1ccc2c(n1)CCN2C(=O)c1ncc(N2CCC3(CC2)Cc2ccc(Cl)cc2C3N)nc1N (stereo not shown) [Compound 91] |
| 0.001 µM | 0.078 µM | – | Nc1nc(N2CCC3(CC2)Cc2cc(F)ccc2C3N)cnc1C(=O)N1CCCn2nccc21 (stereo not shown) [Compound 4] |
| 0.029 µM | 0.285 µM | – | Cn1cc(-c2ccc3c(n2)CCCN3C(=O)c2ncc(N3CCC4(CC3)Cc3ccccc3C4N)nc2N)cn1 (stereo not shown) [Compound 33] |
| 0.007 µM | 0.071 µM | – | CC1(C)CN(C(=O)c2ncc(N3CCC4(CC3)Cc3ccccc3C4N)nc2N)Cc2sc(N)nc21 (stereo not shown) [Compound 61] |
| 0.008 µM | – | 0.025 µM | [2H]C1([2H])CN(C(=O)c2ncc(N3CCC4(CC3)Cc3ccc(OC)cc3C4N)nc2N)Cc2sc(N)nc21 (stereo not shown) [Compound 122] |
| 0.008 µM | 0.286 µM | – | Nc1nc(N2CCC3(CC2)Cc2ncsc2C3N)cnc1C(=O)N1CCCn2nccc21 (stereo not shown) [Compound 86] |
| 0.006 µM | 0.078 µM | – | Nc1nc(N2CCC3(CC2)Cc2ccc(C(F)(F)F)cc2C3N)cnc1C(=O)N1CCCn2nccc21 (stereo not shown) [Compound 22] |
| 0.005 µM | 0.006 µM | – | Nc1nc2c(s1)CN(C(=O)c1ncc(N3CCC4(CC3)Cc3ccc(F)cc3C4N)nc1N)CC2(F)F (stereo not shown) [Compound 116] |
| 0.009 µM | 0.159 µM | – | CC1(C)CCN(C(=O)c2ncc(N3CCC4(CC3)Cc3ccccc3C4N)nc2N)c2ccnn21 (stereo not shown) [Compound 87] |
| 0.005 µM | 0.04 µM | – | Nc1nc(N2CCC3(CC2)Cc2ccc(F)cc2C3N)cnc1C(=O)N1CCc2ncccc21 (stereo not shown) [Compound 16] |
| 0.004 µM | 0.004 µM | – | Nc1nc2c(s1)CN(C(=O)c1nc(F)c(N3CCC4(CC3)Cc3ccccc3C4N)nc1N)CC2(F)F (stereo not shown) [Compound 115] |
| 0.011 µM | 0.039 µM | – | NC(=O)c1nc(C(=O)N2Cc3sc(N)nc3C(F)(F)C2)cnc1N1CCC2(CC1)Cc1ccccc1C2N (stereo not shown) [Compound 117] |
| 0.006 µM | < 0.005 µM | – | Cc1ccc2c(c1)C(N)C1(CCN(c3ncc(C(=O)N4Cc5sc(N)nc5C(F)(F)C4)nc3CO)CC1)C2 (stereo not shown) [Compound 113] |
| 0.011 µM | 0.082 µM | – | Nc1nc(N2CCC3(CC2)Cc2ccccc2C3N)cnc1C(=O)N1CCCc2ncccc21 (stereo not shown) [Compound 13] |
| 0.004 µM | 0.044 µM | – | Nc1nc(N2CCC3(CC2)Cc2ccccc2C3N)cnc1C(=O)N1CCc2ncsc2C1 (stereo not shown) [Compound 10] |
| 0.007 µM | 0.005 µM | – | COc1ccc2c(c1)C(N)C1(CCN(c3ncc(C(=O)N4Cc5sc(N)nc5C(F)(F)C4)nc3CO)CC1)C2 (stereo not shown) [Compound 119] |
| 0.007 µM | 0.079 µM | – | Nc1nc(N2CCC3(CC2)Cc2ccccc2C3N)cnc1C(=O)N1CCCc2n[nH]cc21 (stereo not shown) [Compound 67] |
| 0.007 µM | 0.051 µM | – | Cc1nc(C(=O)N2CCc3nc(N)ccc32)c(N)nc1N1CCC2(CC1)Cc1ccccc1C2N (stereo not shown) [Compound 100] |
| 0.007 µM | 0.11 µM | – | CC1(C)CN(C(=O)c2ncc(N3CCC4(CC3)Cc3ccc(F)cc3C4N)nc2N)Cc2sc(N)nc21 (stereo not shown) [Compound 94] |

| IC50 (SHP-2 enzyme) | IC50 (MV-4-11 cell; Homo sapiens, MV4-11, 96 h) | IC50 (MV-4-11 cell) | SMILES |
| --- | --- | --- | --- |
| 0.037 µM | 0.86 µM | – | N[C@@H]1c2ccccc2CC12CCN(c1cnc(C(=O)N3CCCc4ncccc43)cn1)CC2 [Compound D1, reference compound] |
| 0.004 µM | 0.192 µM | – | Nc1nc(N2CCC3(CC2)Cc2cc(Cl)ccc2C3N)cnc1C(=O)N1CCc2ncccc21 (stereo not shown) [Compound 53] |
| 0.004 µM | 0.024 µM | – | Nc1nc(N2CCC3(CC2)Cc2ccc(Cl)cc2C3N)cnc1C(=O)N1CCCn2nccc21 (stereo not shown) [Compound 2] |
| 0.004 µM | 0.017 µM | – | Nc1nc(N2CCC3(CC2)Cc2ccc(F)cc2C3N)cnc1C(=O)N1CCc2ncsc2C1 (stereo not shown) [Compound 17] |
| 0.011 µM | 0.057 µM | – | Cc1ccc2c(c1)C(N)C1(CCN(c3cnc(C(=O)N4Cc5sc(N)nc5C(C)(C)C4)c(N)n3)CC1)C2 (stereo not shown) [Compound 102] |
| 0.006 µM | 0.056 µM | – | N#Cc1ccc2c(c1)C(N)C1(CCN(c3cnc(C(=O)N4CCCn5nccc54)c(N)n3)CC1)C2 (stereo not shown) [Compound 34] |
| 0.004 µM | 0.012 µM | – | Cc1nc(C(=O)N2CCc3nc(N)sc3C2)c(N)nc1N1CCC2(CC1)Cc1ccccc1C2N (stereo not shown) [Compound 85] |
| 0.014 µM | 0.257 µM | – | Nc1nc(N2CCC3(CC2)Cc2ccncc2C3N)cnc1C(=O)N1CCCn2nccc21 (stereo not shown) [Compound 79] |
| 0.004 µM | 0.119 µM | – | CNc1ccc2c(n1)CCN2C(=O)c1ncc(N2CCC3(CC2)Cc2ccccc2C3N)nc1N (stereo not shown) [Compound 92] |
| 0.005 µM | 0.07 µM | – | Cc1ccc2c(c1)C(N)C1(CCN(c3cnc(C(=O)N4CCc5nc(N)ccc54)c(N)n3)CC1)C2 (stereo not shown) [Compound 64] |
| 0.015 µM | 0.164 µM | – | Nc1ccc2c(n1)CCN2C(=O)c1nc(C2CC2)c(N2CCC3(CC2)Cc2ccccc2C3N)nc1N (stereo not shown) [Compound 106] |
| 0.008 µM | 0.114 µM | – | COc1ccc2c(c1)C(N)C1(CCN(c3cnc(C(=O)N4Cc5sc(N)nc5C(C)(C)C4)c(N)n3)CC1)C2 (stereo not shown) [Compound 93] |
| 0.018 µM | 0.085 µM | – | Cc1nc(C(=O)N2Cc3sc(N)nc3C(C)(C)C2)c(N)nc1N1CCC2(CC1)Cc1ccccc1C2N (stereo not shown) [Compound 101] |
| 0.013 µM | 0.054 µM | – | Nc1nc(N2CCC3(CC2)Cc2ccccc2C3N)cnc1C(=O)N1CCCn2nccc21 (stereo not shown) [Compound 3] |
| 0.004 µM | 0.017 µM | – | Nc1nc2c(s1)CN(C(=O)c1nc(Cl)c(N3CCC4(CC3)Cc3ccccc3C4N)nc1N)CC2 (stereo not shown) [Compound 83] |
| 0.009 µM | 0.119 µM | – | Cc1nc(C(=O)N2CCc3nc(N)ccc32)c(N)nc1N1CCC2(CC1)Cc1ccc(F)cc1C2N (stereo not shown) [Compound 107] |
| 0.004 µM | 0.127 µM | – | CC1CN(C(=O)c2ncc(N3CCC4(CC3)Cc3ccccc3C4N)nc2N)c2ccc(N)nc21 (stereo not shown) [Compound 89] |
| 0.004 µM | 0.196 µM | – | Nc1nc(N2CCC3(CC2)Cc2ccccc2C3N)cnc1C(=O)N1CCc2nc(Cl)ccc21 (stereo not shown) [Compound 52] |
| 0.005 µM | – | 0.009 µM | Nc1nc2c(s1)CN(C(=O)c1ncc(N3CCC4(CC3)Cc3cc(F)ccc3C4N)nc1N)CC2(F)F (stereo not shown) [Compound 129] |
| 0.007 µM | 0.125 µM | – | Nc1ccc2c(n1)CCN2C(=O)c1cnc(N2CCC3(CC2)Cc2ccccc2C3N)c(CO)n1 (stereo not shown) [Compound 68] |
| 0.004 µM | 0.127 µM | – | Nc1nc(N2CCC3(CC2)Cc2ccccc2C3N)cnc1C(=O)N1CCc2nc(F)ccc21 (stereo not shown) [Compound 80] |
| 0.013 µM | 0.065 µM | – | CNc1ccc2c(n1)CCN2C(=O)c1nc(C)c(N2CCC3(CC2)Cc2ccccc2C3N)nc1N (stereo not shown) [Compound 103] |
| 0.003 µM | 0.176 µM | – | Nc1ccc2c(n1)CCN2C(=O)c1ncc(N2CCC3(CC2)Cc2ccc(F)cc2C3N)nc1N (stereo not shown) [Compound 95] |
| 0.059 µM | 0.059 µM | – | Cn1c(N2CCC3(CC2)Cc2ccccc2C3N)nc(N)c(C(=O)N2CCCn3nccc32)c1=O (stereo not shown) [Compound 40] |
| 0.007 µM | 0.176 µM | – | Nc1nc(N2CCC3(CC2)Cc2ccccc2C3N)nnc1C(=O)N1CCCn2nccc21 (stereo not shown) [Compound 45] |
